This test concerns RSV (Long). The experiment in a line: RSV cytopathic effect (CPE)-based viral replication assay. Conditions: HEp-2 cells infected with RSV Long at MOI 0.015, 3 days at 37° C., cell viability by CellTiter-Glo luminescence, read-out: EC50 (nm). The test is classed as cell-based, respiratory syncytial virus (RSV). Here is the method: Example A: RSV Cytopathic Effect
Compounds of the invention are initially tested in a cytopathic effect (CPE)-based viral replication assay using immortalized cells and a laboratory strain of RSV (Long). This assay evaluates the ability of a compound to inhibit viral replication.
Assay plates are prepared by seeding 2,500 HEp-2 cells (ATCC) per well of a 384-well black clear-bottom plate (Greiner Bio-One) in 20 μL of assay media (defined as DMEM supplemented with 2% heat-inactivated fetal bovine serum and 1% Penicillin/Streptomycin). Assay plates are incubated overnight at 37° C. in an incubator containing 5% CO2. The following day, a 10-point serial dilution of test compound is prepared in DMSO. Compounds are subsequently diluted with assay media and 20 μL of diluted compound (containing 1.5% DMSO) is transferred to an assay plate for evaluation of antiviral activity.
For the CPE assay, cells are infected at a Multiplicity of Infection (MOI) of 0.015 using 20 μL of RSV Long (ATCC) diluted in assay media. The DMSO concentration is constant throughout the assay plate, including the negative and positive controls. The assay plate is incubated for 3 days at 37° C. in an incubator containing 5% CO2. Cell viability is evaluated with the addition of 10 μL of CellTiter-Glo (ProMega). Luminescence is measured using an EnVision plate reader (Perkin Elmer). EC50 values are calculated using the raw data from the CPE assays.
(In general: Cytopathic effects are the visible damage that an infection or toxin causes in cultured cells.)

Where [1] appears, read: human respiratory syncytial virus, HEp-2, 72 h.

Where two headings read alike, the source gives them in different places.

Consider `CC(C)(C)c1ccc(-c2c(Cn3c(=O)n(C4CC4)c4ccncc43)ncc3ccccc23)cc1` [Example 51d, 3-((4-(4-(tert-butyl)phenyl)isoquinolin-3-yl)methyl)-1-cyclopropyl-1H-imidazo[4,5-c]pyridin-2(3H)-one], for which the EC50 under setting [1] is more than 1 nM.
On to `CC1(n2c(=O)n(Cc3ncc4ccccc4c3CCCCO)c3cnccc32)CC1` [Example 52b, 3-((4-(4-hydroxybutyl)isoquinolin-3-yl)methyl)-1-(1-methylcyclopropyl)-1H-imidazo[4,5-c]pyridin-2(3H)-one], for which the EC50 under setting [1] is 2.6 nM.
Same read-out and setting: in the case of `CC1(S(=O)(=O)N2CCC3(CC2)C(=O)N(Cc2ncc4ccccc4c2CCCCO)c2cnccc23)CC1` [Example 54, 1′-((4-(4-hydroxybutyl)isoquinolin-3-yl)methyl)-1-((1-methylcyclopropyl)sulfonyl)spiro[piperidine-4,3′-pyrrolo[2,3-c]pyridin]-2′(1′H)-one] it was 6 nM; in that of `NC(=O)N1CC2(C1)C(=O)N(Cc1ncc3ccccc3c1CCCCO)c1ccccc12` [Example 55, 1′-((4-(4-hydroxybutyl)isoquinolin-3-yl)methyl)-2′-oxospiro[azetidine-3,3′-indoline]-1-carboxamide], 4.6 nM; in that of `CC(C)(C)NC(=O)N1CC2(C1)C(=O)N(Cc1ncc3ccccc3c1CCCCO)c1ccccc12` [Example 56, N-(tert-butyl)-1′-((4-(4-hydroxybutyl)isoquinolin-3-yl)methyl)-2′-oxospiro[azetidine-3,3′-indoline]-1-carboxamide], 1.3 nM.
On the same count and under the same terms, in the case of `O=c1n(Cc2ncc3ccccc3c2CCCCF)c2cnccc2n1C1CC1` [Example 57, 1-Cyclopropyl-3-((4-(4-fluorobutyl)isoquinolin-3-yl)methyl)-1H-imidazo[4,5-c]pyridin-2(3H)-one] it was 3.4 nM.
In the case of `CS(=O)(=O)N1CC2(C1)C(=O)N(Cc1ncc3ccccc3c1CF)c1ccccc12` [Example 59], the concentration for a half-maximal effect (EC50) was determined as 5.7 nM.
As to `N#Cc1ccc(-c2c(CN3C(=O)C4(CN(C(=O)C5(N)CC5)C4)c4ccccc43)ncc3ccccc23)cn1` [Example 60c, 5-(3-((1-(1-Aminocyclopropanecarbonyl)-2′-oxospiro[azetidine-3,3′-indolin]-1′-yl)methyl)isoquinolin-4-yl)picolinonitrile], the concentration for a half-maximal effect (EC50) under setting [1] was found to be 25 nM.
As to `CC1(S(=O)(=O)N2CC3(C2)C(=O)N(Cc2ncc4ccccc4c2-c2ccc(C#N)nc2)c2ccccc23)CC1` [Example 61], the EC50 under setting [1] was determined as 4.4 nM.
As to `CN(C)C1(C(=O)N2CC3(C2)C(=O)N(Cc2ncc4ccccc4c2-c2ccc(C#N)nc2)c2ccccc23)CC1` [Example 62, 5-(3-((1-(1-(dimethylamino)cyclopropanecarbonyl)-2′-oxospiro[azetidine-3,3′-indolin]-1′-yl)methyl)isoquinolin-4-yl)picolinonitrile], the 50% effective concentration (EC50) under setting [1] stood at 10 nM.
The same measure, in the same setting: in the case of `CNC1(C(=O)N2CC3(C2)C(=O)N(Cc2ncc4ccccc4c2-c2ccc(C#N)nc2)c2ccccc23)CC1` [Example 63, 5-(3-((1-(1-(Methylamino)cyclopropanecarbonyl)-2′-oxospiro[azetidine-3,3′-indolin]-1′-yl)methyl)isoquinolin-4-yl)picolinonitrile] it was 1.5 nM; in that of `N#Cc1ccc(-c2c(CN3C(=O)C4(CN(C(=O)OCCO)C4)c4ccccc43)ncc3ccccc23)cn1` [Example 64, 2-Hydroxyethyl 1′-((4-(6-cyanopyridin-3-yl)isoquinolin-3-yl)methyl)-2′-oxospiro[azetidine-3,3′-indoline]-1-carboxylate], 1.6 nM.
The same measure, in the same setting: next, `N#Cc1ccc(-c2c(CN3C(=O)C4(CCN(C(=O)C5(N)CC5)CC4)c4ccncc43)ncc3ccccc23)cn1` [Example 65, 5-(3-((1-(1-aminocyclopropanecarbonyl)-2′-oxospiro[piperidine-4,3′-pyrrolo[2,3-c]pyridin]-1′(2′H)-yl)methyl)isoquinolin-4-yl)picolinonitrile]: 6.4 nM.
On the same count and under the same terms, in the case of `CS(=O)(=O)N1CCC2(CC1)C(=O)N(Cc1ncc3ccccc3c1-c1ccc(C#N)nc1)c1cnccc12` [Example 66-1, 5-(3-((1-(Methylsulfonyl)-2′-oxospiro[piperidine-4,3′-pyrrolo[2,3-c]pyridin]-1′(2′H)-yl)methyl)isoquinolin-4-yl)picolinonitrile] it was 2.6 nM; in that of `N#Cc1ccc(-c2c(CN3C(=O)C4(CCN(C(=O)C(F)(F)F)CC4)c4ccncc43)ncc3ccccc23)cn1` [Example 66-2, 5-(3-((2′-Oxo-1-(2,2,2-trifluoroacetyl)spiro[piperidine-4,3′-pyrrolo[2,3-c]pyridin]-1′(2′H)-yl)methyl)isoquinolin-4-yl)picolinonitrile], 6 nM; in that of `CNC1(C(=O)N2CCC3(CC2)C(=O)N(Cc2ncc4ccccc4c2-c2ccc(C#N)nc2)c2cnccc23)CC1` [Example 67, 5-(3-((1-(1-(Methylamino)cyclopropanecarbonyl)-2′-oxospiro[piperidine-4,3′-pyrrolo[2,3-c]pyridin]-1′(2′H)-yl)methyl)isoquinolin-4-yl)picolinonitrile], 8.2 nM.
As for `N#Cc1ccc(-c2c(CN3C(=O)C4(CCN(C(=O)OCCO)CC4)c4ccncc43)ncc3ccccc23)cn1` [Example 68, 2-hydroxyethyl 1′-((4-(6-cyanopyridin-3-yl)isoquinolin-3-yl)methyl)-2′-oxo-1′,2′-dihydrospiro[piperidine-4,3′-pyrrolo[2,3-c]pyridine]-1-carboxylate], the EC50 under setting [1] was 2.5 nM.
On the same count and under the same terms, next, `CS(=O)(=O)c1ccc(-c2c(Cn3c(=O)n(C4CC4)c4ccncc43)ncc3ccccc23)cc1` [Example 69d, 1-cyclopropyl-3-((4-(4-(methylsulfonyl)phenyl)isoquinolin-3-yl)methyl)-1H-imidazo[4,5-c]pyridin-2(3H)-one]: 5.8 nM; `CS(=O)(=O)c1ccc(-c2c(Cn3c(=O)n(C4CC4)c4ccncc43)ncc3ccccc23)cn1` [Example 70c, 1-Cyclopropyl-3-((4-(6-(methylsulfonyl)pyridin-3-yl)isoquinolin-3-yl)methyl)-1H-imidazo[4,5-c]pyridin-2(3H)-one]: 19 nM; `CC(C)(C)c1ccc(-c2c(CN3C(=O)C4(CN(S(C)(=O)=O)C4)c4ccccc43)ncc3ccccc23)cc1` [Example 71, 1′-((4-(4-(Tert-butyl)phenyl)isoquinolin-3-yl)methyl)-1-(methylsulfonyl)spiro[azetidine-3,3′-indolin]-2′-one]: 200 nM.
Same read-out and setting: next, `CS(=O)(=O)N1CC2(C1)C(=O)N(Cc1ncc3ccccc3c1-c1cc(F)cc(F)c1)c1ccccc12` [Example 72]: 5.6 nM; `COC(=O)N1CC2(C1)C(=O)N(Cc1ncc3ccccc3c1-c1ccc(F)nc1)c1ccccc12` [Example 73]: 1.6 nM.
The same measure, in the same setting: in the case of `CS(=O)(=O)N1CC2(C1)C(=O)N(Cc1ncc3ccccc3c1-c1ccc(F)cc1)c1ccccc12` [Example 74] it was 5.8 nM; in that of `CS(=O)(=O)N1CC2(C1)C(=O)N(Cc1ncc3ccccc3c1-c1ccc(F)c(F)c1)c1ccccc12` [Example 75], 7.1 nM; in that of `CS(=O)(=O)N1CC2(C1)C(=O)N(Cc1ncc3ccccc3c1-c1ccc(C#N)cc1)c1ccccc12` [Example 76], 2.5 nM.
Consider `N#Cc1ccc(-c2c(CN3C(=O)C4(CN(C(N)=O)C4)c4ccccc43)ncc3ccccc23)cn1` [Example 77], for which, under setting [1], the EC50 came out at 3 nM.

The term EC50 denotes the concentration giving half of the maximal effect.

(Values after patent publication US20190002436A1, “RESPIRATORY SYNCYTIAL VIRUS INHIBITORS” (MEDIVIR AB, priority 2015, published 2019).)
